Test results as given in ChEMBL document CHEMBL1201862, “PubChem BioAssay data set” (2004).
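Where inhibition never reached the appropriate level, the endpoint shown equals the highest concentration tested. Otherwise, values were interpolated linearly from a five-concentration, 48-hour dose response in 96-well plates. Abbreviation: GI50, concentration required for 50% inhibition of growth.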 Active and inactive are the calls of the source. No stated cut-off is given here; in the data, active = GI50 up to about 1.1 µM and inactive = higher.

Experiments:
Experiment in all cases: NCI-60 cell line screen, 48 h
[1] = test system: A498
[2] = test system: ACHN
[3] = test system: DLD-1
[4] = test system: HCC 2998
[5] = test system: HOP-18
[6] = test system: KM-20L2
[7] = test system: LXFL 529
[8] = test system: M14
[9] = test system: M19-MEL
[10] = test system: NCI-H522
[11] = test system: SNB-78
[12] = test system: SR
[13] = test system: TK-10
[14] = test system: DMS-114
[15] = test system: DMS-273
[16] = test system: NCI-H226
[17] = test system: K562
[18] = test system: MCF7
[19] = test system: NCI/ADR-RES
[20] = test system: DU-145

Measured: GI50

COCCOCOC(C)(C)[C@H](CCO)O[Si](c1ccccc1)(c1ccccc1)C(C)(C)C
inactive: [1] 16.7 µM | [2] 5.68 µM | [3] 9.64 µM | [4] 4.68 µM | [5] 17.5 µM | [6] 11.8 µM | [7] 9.95 µM | [8] 9.89 µM | [9] 11.7 µM | [10] 4.57 µM | [11] 16.3 µM | [12] 3.25 µM | [13] 10.9 µM

O=C(NN1C(=O)CS(=O)(=O)C1c1ccc(C(F)(F)F)cc1)c1ccncc1 (stereo not given)
inactive: [1] > 100 µM | [2] > 100 µM | [3] > 100 µM | [14] > 100 µM | [15] > 100 µM | [4] > 100 µM | [5] > 100 µM | [7] > 100 µM | [8] > 100 µM | [16] > 100 µM | [10] > 100 µM | [11] > 100 µM | [12] > 100 µM | [13] > 100 µM

CN(C)C(CN)CC1=C(CC(CN)N(C)C)CCC1 (stereo not given)
inactive: [1] > 100 µM | [3] > 100 µM | [14] > 100 µM | [15] > 100 µM | [4] > 100 µM | [5] > 100 µM | [17] > 100 µM | [6] > 100 µM | [9] > 100 µM | [18] > 100 µM | [16] > 100 µM | [10] > 100 µM | [19] > 100 µM | [11] > 100 µM

CC1(C)N/C(=C\C=O)C(C)(C)N1O
inactive: [2] > 100 µM | [20] > 100 µM | [4] > 100 µM | [17] > 100 µM | [8] > 100 µM | [18] > 100 µM | [16] > 100 µM | [19] > 100 µM | [12] > 100 µM | [13] > 100 µM

COc1ccc(-c2c(C#N)c(NC(=S)NC(=O)c3ccccc3)nc3c2CCCC3)cc1OC
inactive: [2] 72.3 µM | [20] > 100 µM | [17] 29.6 µM | [8] 75.7 µM | [18] 46.3 µM | [19] 56.4 µM | [12] 59.2 µM | [13] 45.4 µM

CC1(C)CCc2ccc(OCCC(=O)O)cc2O1
inactive: [2] > 100 µM | [3] > 100 µM | [14] > 100 µM | [15] > 100 µM | [17] > 100 µM | [7] > 100 µM | [8] > 100 µM | [9] > 100 µM | [16] > 100 µM | [10] > 100 µM | [11] > 100 µM | [12] > 100 µM

CCOC(=O)/C(O)=C1\C(=O)N(C)C(=O)C1c1ccc(OC)c(OC)c1 (stereo not given)
inactive: [1] > 100 µM | [3] > 100 µM | [14] > 100 µM | [15] > 100 µM | [4] > 100 µM | [5] > 100 µM | [17] > 100 µM | [6] > 100 µM | [9] > 100 µM | [18] > 100 µM | [16] > 100 µM | [10] > 100 µM | [19] > 100 µM | [11] > 100 µM
